Results on two compounds are retold here after patent US10624894B2, “Pharmaceutical product and communication tool” (ScientificMed Sweden AB, priority 2011, dated 2020).

The conditions of data set [1]: source: EPAR summary for Lyrica; cited from earlier work.
Data set [2] concerns patients with newly reported Acute Coronary Syndrome (ACS). Put plainly: Study 5: randomized controlled trial, Ticagrelor with QFM (active group) versus Ticagrelor with e-diary (control group). The data set is classed as in vivo, human. An excerpt:
The study design was two different patient groups with at least eighty patients in each group. The group using the invention, hereafter called the active group, used their own mobile phones to use the QFM described above and the actual drug Ticagrelor. The other group, hereafter called the control group, used their own mobile phones with just an e-diary (control app) and the actual drug Ticagrelor.
Study design: Randomized Controlled Trial with two different patient groups
Intervention to evaluate: The invention using the above described QFM in the patients mobile phones, integrated with the actual drug
Actual used drug: Ticagrelor (Brilique)
Control: e-diary. The e-diary consisted of the following items and functionalities, enabling data for study evaluation • The questions concerning adherence to the specific drug, being able to answer whether the patient took the drug in the morning and/or in the evening, for the actual day and the day before. • A reminder through a text message if the patient missed to answer the adherence questions during one day
Patient group: Patients with newly reported Acute Coronary Syndrome (ACS).
Number of patients in total: 166
Length of using the invention: Six months
Primary objective: Assess the non-adherence to the drug according to the prescription recommendation in patients using the invention compared to patients who only use the control-app
The primary endpoint definition was according to the following: Composite endpoint of adherence failure- or treatment gap events registered by patients • Adherence failure events; • More than 14% missed doses during an observation cycle of 7 days. The first missed dose of the drug initiates an observation cycle of 1 week. If a second missed dose is registered within this week an adherence failure event is registered. The third missed dose initiates a new observation cycle, and the process restarts. • Treatment gap events; • patient reported gaps of more than 4 consecutive doses
Secondary objectives: Comparison between active group and control group concerning; • Adherence to treatment of the specific drug • Cardiovascular risk factors: • BMI • Physical activity • Blood pressure • LDL-cholesterol • Smoking cessation • Quality of life (EQ5D-VAS)
The patients with ACS was randomly selected to one of the study arms. After inclusion patients in the active group used the described QFM in relation to the actual drug during the actual period of time.

The mark [3] stands for this setting: Active group (QFM + Ticagrelor).
Where [4] appears, read: Control group (e-diary + Ticagrelor).

With `CC(C)C[C@H](CN)CC(=O)O` [A, pregabalin], in data set [1], the “Common side-effects which may affect more than 1 person in 100 (among others)” value is recorded as “dry mouth, nausea” and the “Very common side-effects which may affect more than 1 person in 10” value is reported as “dizziness, tiredness”.
For the compound `CCCSc1nc(N[C@@H]2C[C@H]2c2ccc(F)c(F)c2)c2nnn([C@@H]3C[C@H](OCCO)[C@@H](O)[C@H]3O)c2n1` [Ticagrelor, ticagrelor], in data set [2] (setting [3]), the LDL change is −1.8, the Physical activity improvements is on record as 50%, the “Quality of life (EQ5D-VAS) change” value is “+14.7” and the Smoking cessation is on record as −80%. Further, in data set [2] (setting [4]), the LDL change is reported as −1.0, the Physical activity improvements came to 32%, the “Quality of life (EQ5D-VAS) change” value is given as “+8.4” and the Smoking cessation is given as −45%. Further, the “BMI; average decrease in weight” value in data set [2] (Patients having a BMI >30, group not stated) stood at 5%. Also, the “patient deaths during the usage of the invention” value in data set [2] (six months) was “No patients in the study died”.
